One data set concerns Ishikawa cells. The experiment in a line: Fluorescence microscopy binding to live cells. The format is cell-based, human. The following applies: for fluorescence/binding of Qdot-conjugated peptide on Ishikawa cells: 100 nM. Here is the method: (§1) Ishikawa cells and A431 cells were grown on glass coverslips in 3.5 cm tissue culture plates. Each phage clone including z13 was added to these cells, incubated at 4° C. for 15 min, washed with cold PBS, and fixed with 1% paraformaldehyde (PFA) in PBS. Phage was detected using rabbit anti-T7 antibody and FITC-conjugated goat anti-rabbit IgG antibody. After washing three times with PBS, cells were fixed with 1% paraformaldehyde in PBS and inspected under a Zeiss Axioplan fluorescence microscope. Ishikawa cells grown on glass coverslips were incubated in medium containing FITC-z13 peptide (1 μg/ml) at 37° C. for 15 min. After washing with PBS, cells were fixed with 1% PFA in PBS, and inspected under the fluorescence microscope. Qdot-encapsulated and C16-z13 peptide coated liposomes were prepared as described above. Ishikawa cells were incubated with these liposomes at 37° C. for 15 min, washed with PBS, fixed with 1% PFA, and inspected under the fluorescence microscope. Qdot605-conjugated peptide, Qdot-cys-z13, or control peptide, Qdot-cys-m2, was added to the culture at 100 nM and left at 37° C. for 15 min.
(§2) Ishikawa cells and A431 cells were grown on glass coverslips in 3.5-cm tissue culture plates. Ishikawa cells grown on glass coverslips were incubated in medium containing FITC-z13 peptide (1 μg/ml) at 37° C. for 15 min. After washes with PBS, cells were fixed with 1% PFA in PBS and inspected under a fluorescence microscope. Qdot-cys-z13 was prepared by conjugating cys-z13 to Qdot nanoparticles (Qdot antibody conjugation kit, Quantum Dot, Hayward, Calif.) in accordance with the manufacturer's protocol. Cells were inspected under a Zeiss Axioplan fluorescence microscope.

A further data set concerns A431 cells. The data set can be described thus: Fluorescence microscopy binding to control cells. The class given is cell-based, human. As for the experimental part: as §1, §2
Data set [1] concerns the target T1, CNGB3 (Homo sapiens, UniProt Q9NQW8).
T1 construct: tissue Folio Biosciences; Imgenex; host or cells: human endometriosis tissue sections, normal uterine endometrium and normal tissue microarrays, peritoneum
T1 sequence (Q9NQW8 1-809 C234W): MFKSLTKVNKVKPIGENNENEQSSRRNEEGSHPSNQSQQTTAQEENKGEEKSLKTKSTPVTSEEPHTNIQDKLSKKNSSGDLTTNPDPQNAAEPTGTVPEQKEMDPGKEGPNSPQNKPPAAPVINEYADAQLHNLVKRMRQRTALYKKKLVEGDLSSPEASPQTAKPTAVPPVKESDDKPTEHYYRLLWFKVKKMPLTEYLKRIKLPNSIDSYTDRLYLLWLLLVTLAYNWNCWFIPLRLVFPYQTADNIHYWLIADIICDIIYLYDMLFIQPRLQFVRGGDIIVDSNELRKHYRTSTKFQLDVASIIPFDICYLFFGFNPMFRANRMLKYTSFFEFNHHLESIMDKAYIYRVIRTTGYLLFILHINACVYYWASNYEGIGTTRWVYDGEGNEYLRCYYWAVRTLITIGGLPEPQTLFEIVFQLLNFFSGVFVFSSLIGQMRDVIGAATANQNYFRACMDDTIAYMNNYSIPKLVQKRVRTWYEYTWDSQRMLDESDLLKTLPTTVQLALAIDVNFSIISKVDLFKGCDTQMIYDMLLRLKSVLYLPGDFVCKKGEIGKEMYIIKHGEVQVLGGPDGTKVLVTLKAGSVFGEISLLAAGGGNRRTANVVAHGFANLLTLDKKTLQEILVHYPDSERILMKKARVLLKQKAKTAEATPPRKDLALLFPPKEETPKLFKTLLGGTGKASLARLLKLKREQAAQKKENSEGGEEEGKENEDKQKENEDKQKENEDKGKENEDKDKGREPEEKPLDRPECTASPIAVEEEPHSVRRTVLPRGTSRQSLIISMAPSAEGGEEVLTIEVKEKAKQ
The experiment in a line: FITC-z13 binding to HeLa cells transfected with CNGB3-MYC. The class given is cell-based. The note with it: 5 μg/ml, 37° C. 15 min. From the text: (§3) To assess binding of FITC-z13 to CNGB3, HeLa cells were transfected with a mammalian expression vector encoding a CNGB3-MYC fusion protein or with control empty vector. Fluorescence micrographs were made of HeLa cells transfected by control vector or with an expression vector encoding CNGB3-MYC.
(§4) CNGB3 cDNA was kindly provided by Dr. Hisao Ueyama, Department of Ophthalomology, Shiga University of Medical Science, Japan. cDNA encoding full-length CNGB3 was excised by HindIII and BsrGI and ligated into the HindIII and Asp718I sites of pcDNA3.1/myc-His-B vector (Invitrogen). HeLa cells were transfected with this vector, and expression of CNGB3-MYC/His fusion protein was determined by immunohistochemistry with an anti-MYC antibody and the anti-CNGB3 antibody (clone 3B2) described above. To test binding of z13 peptide to CNGB3, FITC-z13 was added (5 μg/ml) to the medium of HeLa cells transfected by the above-described vector and incubated at 37° C. for 15 min. Cells were washed with PBS, fixed with 4% PFA in PBS, and observed under a fluorescence microscope.

Data set [2] deals with T2, CNGB3 (Homo sapiens, UniProt Q9NQW8, C234W).
T2 construct: tissue Folio Biosciences; Imgenex; host or cells: human endometriosis tissue sections, normal uterine endometrium and normal tissue microarrays, peritoneum
T2 sequence (Q9NQW8 1-809 C234W): T1 sequence (Q9NQW8 1-809 C234W)
The description is as above. The format is cell-based. The note with it: control empty vector.
Excerpt: as §3, §4

Data set [3] has as its system CNGB3-positive A431 cells. The experiment in a line: Cell viability assay measuring ATP with KLA-HLA hybrid z13 peptides. The class given is cell-based, human. The following applies: 37° C. 6 hours, ATP by CellTiter Glo (FIG. 8). Here is the method:
FIG. 8 is a graph of luminescence versus peptide concentration in μg/ml. […] Cells were cultured in medium containing each peptide at indicated concentrations at 37° C. for 6 hours. ATP levels were measured by CellTiter Glo (Promega).
(§5) The effect of these peptides was tested using CNGB3-positive A431 cells, which was generated by transfecting A431 cells with CNGB3-Myc gene driving lenti viral vector. […] The assays used detected no difference between these two peptides. The TUNEL assay was of CNGB3-MYC expressing A431 cells after culturing in medium containing KLA-HLA-z13 for 24 hours.

For another data set, the system named is mammalian cell. The note with it: not coupled to a targeting domain; cited from earlier work.
Data set [4] concerns CNGB3-Myc cDNA-transfected HEK293T cells. The data set can be described thus: Apoptosis (TUNEL) of CNGB3-Myc transfected HEK293T cells. The format is cell-based. The note with it: peptide alone added to culture medium. The text has this:
(§6) It was realized that this lack of effect could be due to the fact that receptor-bound dKLAK-z13 localizes to the luminal side of endosomes, a prediction supported by the endosome-like pattern of fluorescent z13. To release dKLAK-z13 from the endosomes to the cytoplasm, an endosome-escaping 18-mer peptide HLAHLAHHLAHLAHHLAH (SEQ ID NO:38; here abbreviated as HLAH) was devised by replacing lysines in KLAKLAK (SEQ ID NO:39) with histidines, to provide histidine-rich sequences capable of destabilizing endosome membranes at acidic pH (Midoux et al., 2002; Pichon et al., 2001). […] For this experiment, biotin-z13 was bound to CNGB3-MYC expressing HEK293T cells at 37° C. for 30 min with or without HLAH-z13. Cells were stained by Alexa 488-conjugated avidin followed by DAPI nuclear staining.
Each peptide was dissolved in dimethylsulfoxide at 100 μg/μl. Each peptide was added to the medium of cells, and the cells were cultured at 37° C. for 20 hours. Apoptosis of CNGB3-Myc cDNA-transfected HEK293T cells was determined by TUNEL assay using the ApopTag immunoperoxidase kit (Chemicon, Temecula, Calif.).

In data set [5] the test system is CNGB3-expressing HEK293T cells. The experiment in a line: Cell viability assay (ATP, CellTiter Glo) in CNGB3-expressing cells. The format is cell-based. The note with it: 37° C. 1 hour, single peptide. As for the experimental part:
FIG. 5 is a graph of luminescence of live cells cultured in medium containing peptides on CNGB3-MYC expressing A431 cells versus peptide concentration for the four different peptide combinations: z13, dKLAK-z13, HLAH-z13, or dKLAK-z13 plus HLAH-z13. Cells were cultured in medium containing each peptide at the indicated concentrations at 37° C. for 1 hour. ATP levels were measured by CellTiter Glo (Promega). Lines represent, in order from top to bottom: z13, dKLAK-z13, HLAH-z13, and dKLAK-z13 plus HLAH-z13.
Cytotoxic activity of dKLAK-z13 was then assessed in the presence of HLAH-z13 using a cell viability assay (FIG. 5). When CNGB3-expressing HEK293T cells were cultured in medium containing z13, dKLAK-z13, or HLAH-z13 at 37° C. for 1 hour, cell viability was not affected except at high concentration of dKLAK-z13 (at 200 μg/ml) or HLAH-z13 (at 50 μg/ml). […] For this experiment, cells were cultured at 37° C. for 20 hours in medium containing no peptide; z13 (100 μg/ml); dKLAK (100 μg/ml); dKLAK-z13 (100 μg/ml); HLAH-z13 (25 μg/ml); or dKLAK-z13 (100 μg/ml) plus HLAH-z13 (25 μg/ml).

Data set [6] deals with CNGB3-MYC expressing HEK293T cells. The data set can be described thus: Endosome escape of biotin-z13 in CNGB3-MYC expressing HEK293T cells. The format is cell-based. The following applies: 37° C. 30 min.
Excerpt: as §6

Data set [7] deals with CNGB3-MYC expressing A431 cells. The data set can be described thus: TUNEL assay with KLA-HLA hybrid z13 peptides. The note with it: 24 hours in medium containing peptide. The class given is cell-based, human. As for the experimental part:
as §5

These results are taken from patent US9783576B2, “Compositions and methods for targeted endometriosis treatment” (Sanford-Burnham Medical Research Institute, priority 2013, dated 2017).

“Also recorded” adds a separate entry of the source. Where two headings read alike, the source gives them in different places. Where no end group is shown, it is not given here. The star is where a group is joined. FITC = O=C1OC2(c3ccc(O)cc3Oc3cc(O)ccc32)c2ccc(NC(=S)*)cc21

Take “FITC-z13: synthetic fluorescence-tagged z13 peptide whose amino-terminus was conjugated ({FITC}-VRRADNRPG)”: in the data set with Ishikawa cells (1 μg/ml, 37° C. 15 min), the “binding of FITC-tagged z13 peptide to Ishikawa cells” value is recorded as “bound”. Further, the “binding of FITC-tagged z13 peptide to A431 cells” value with A431 cells is “did not show fluorescence”; in the data set on A431 cells (listed as z13 peptide with an N-terminal FITC-tag) it was “not”. The “binding to CNGB3-MYC-expressing HeLa cells” value in the data set with CNGB3 [1] is recorded as “bound to sites marked by MYC-epitope expression”. For the same substance, the “binding to vector-transfected control HeLa cells” value with CNGB3 [2] was “did not bind”.

In the case of “HLAHLAHHLAHLAHKLAKLAKKLAKLAKVRRADNRPG [HLA-KLA-z13]”, the “apoptosis / loss of viability of CNGB3-positive A431 cells” value in data set [3] was “induced apoptosis”.

Consider “(KLAKLAK)2 (KLAKLAKKLAKLAK) [mitochondriotoxic pro-apoptotic peptide (PAP)]”, for which the “mammalian cell cytotoxicity of the peptide by itself” value in the data set on mammalian cell is reported as “low mammalian cell cytotoxicity”.

In the case of KLAKLAKKLAKLAKKLAKVRRADNRPG [dKLAK-z13], in data set [4], the “induction of apoptosis in CNGB3-expressing cells” value is reported as “apoptosis was not induced; also recorded: did not induce apoptosis”. Also, in data set [5], the “high concentration at which cell viability was affected (otherwise not affected)” value is 200 µg/mL.

On to “HLAHLAHHLAHLAHHLAHVRRADNRPG (HLAHLAHHLAHLAHHLAHVRRAXNXPG; (23)..(23) Xaa can be any naturally occurring amino acid; (25)..(25) Xaa can be any naturally occurring amino acid) [HLAH-z13]”, for which the “endosome-escaping activity (release of biotin-z13 from endosomes to cytoplasm)” value in data set [6] is “promotes endosome-escaping activity”. Further, the “high concentration at which cell viability was affected (otherwise not affected)” value in data set [5] is 50 µg/mL.

Consider “Qdot-cys-z13: synthetic cys-z13 peptide CVRRADNRPG conjugated to fluorescent nanocrystal Qdot605 (also: conjugated to Qdot605 nanocrystal)”, for which the “fluorescence/binding of Qdot-conjugated peptide on Ishikawa cells” value in the data set with Ishikawa cells (37° C. 15 min) is reported as “strong fluorescence”; in the data set on Ishikawa cells (37° C. 15 min, listed as Qdot-z13), “bound”. The “binding of Qdot-conjugated peptide to A431 cells” value in the data set with A431 cells is “not”.

For VRRADNRPG [z13], the “cellular localization of z13 in Ishikawa cells” value in the data set with Ishikawa cells (punctuate cytoplasmic staining pattern in micrographs) is on record as “internalized to endosomes”. Besides, the cell viability result in data set [5] is listed as “not affected”.

For the substance “KLAKLAKKLAKLAKHLAHLAHHLAHLAHVRRADNRPG [KLA-HLA-z13]”, the “apoptosis / loss of viability of CNGB3-positive A431 cells” value in data set [3] is on record as “induced apoptosis”. Besides, in data set [7], the “frequency of TUNEL-positive cells” value is recorded as “dose-dependent increase in the frequency of TUNEL-positive cells”.
